What all share (assay type): biochemical
Test [1] concerns the target T1, Tissue Factor/factor VIIa (recombinant human factor VIIa, soluble Tissue Factor (1-219)) (Homo sapiens, UniProt P08709).
T1 construct: recombinant human factor VIIa (NB #25942-16); NB #25942-16
The test is described as follows: Tissue Factor/Factor VIIa antagonist assay (Ki, chromogenic substrate Chromozym-tPA). To be noted: read-out: Ki(TFVIIa). On the procedure:
Tissue Factor/Factor VIIa Antagonist Assay
This procedure can be used to determine the constant of inhibition (Ki) for a sample compound of the invention.
1. Prepare a solution of 2 μg/mL (90 nM) tissue factor and 1.5 μg/mL (30 nM) factor VIIa in assay buffer with CaCl2.
2. Incubate for 15 minutes at room temperature.
3. Add 50 μL sample to each well.
4. Add 50 μL tissue factor/factor VIIa solution to each well.
5. Incubate for 15 minutes at room temperature with gentle agitation.
6. Add 50 μL substrate to each well.
7. Agitate plate for 20-25 sec.
8. Monitor absorbance at 405 nm every 10 sec for a total of 5 minutes at room temperature.
9. Calculate Vmax over 10 points.
(§1) Assay—Enzyme, Substrate and Final Concentrations

Test [2] addresses T2, human Plasma Kallikrein (Homo sapiens, UniProt P03952).
T2 construct: Factor Xa, Thrombin, and Plasma Kallikrein Assays
The test is described as follows: Plasma Kallikrein assay (Ki, chromogenic substrate S-2302). On the procedure: (§2) Factor Xa, Thrombin, and Plasma Kallikrein Assays
(§3) These procedures can be used to determine the constant of inhibition (Ki) for a sample compound of the invention.
(§4) 1. Add 50 μL sample to each well.
(§5) 2. Add 50 μL appropriately diluted coagulation factor to each well.
(§6) 3. Incubate for 5 minutes at room temperature with gentle agitation.
(§7) 4. Add 50 μL appropriately diluted substrate to each well.
(§8) 5. Agitate plate for 20-25 sec.
(§9) 6. Monitor absorbance at 405 nm every 10 sec for a total of 5 minutes at room temperature.
(§10) 7. Calculate Vmax over 10 points.
as §1

The target of test [3] is T3, human Factor Xa (Homo sapiens, UniProt P00742).
T3 construct: This complex converts factor X to Xa
T3 sequence (P00742 235-488 limits assumed): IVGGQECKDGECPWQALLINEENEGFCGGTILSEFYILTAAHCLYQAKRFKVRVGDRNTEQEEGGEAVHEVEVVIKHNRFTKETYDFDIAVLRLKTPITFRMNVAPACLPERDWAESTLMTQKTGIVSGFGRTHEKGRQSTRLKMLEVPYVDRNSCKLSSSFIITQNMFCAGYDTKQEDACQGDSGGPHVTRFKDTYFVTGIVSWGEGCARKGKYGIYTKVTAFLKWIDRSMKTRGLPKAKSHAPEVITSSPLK
T3 sequence (P00742 41-179 limits assumed): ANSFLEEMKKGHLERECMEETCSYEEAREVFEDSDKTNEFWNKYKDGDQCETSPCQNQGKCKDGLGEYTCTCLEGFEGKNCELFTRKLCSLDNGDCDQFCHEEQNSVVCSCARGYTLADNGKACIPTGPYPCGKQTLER
The test is described as follows: Factor Xa assay (Ki, chromogenic substrate S-2222). On the procedure: as §2, §3, §4, §5, §6, §7, §8, §9, §10, §1

For test [4], the target named is T4, human Thrombin (Homo sapiens, UniProt P00734).
T4 construct: rapidly converts prothrombin to thrombin
The test can be described thus: Thrombin assay (Ki, chromogenic substrate S-2366). To be noted: read-out: Ki(IIa). As to the method: as §2, §3, §4, §5, §6, §7, §8, §9, §10, §1

T1 sequence (P08709 213-466 limits assumed): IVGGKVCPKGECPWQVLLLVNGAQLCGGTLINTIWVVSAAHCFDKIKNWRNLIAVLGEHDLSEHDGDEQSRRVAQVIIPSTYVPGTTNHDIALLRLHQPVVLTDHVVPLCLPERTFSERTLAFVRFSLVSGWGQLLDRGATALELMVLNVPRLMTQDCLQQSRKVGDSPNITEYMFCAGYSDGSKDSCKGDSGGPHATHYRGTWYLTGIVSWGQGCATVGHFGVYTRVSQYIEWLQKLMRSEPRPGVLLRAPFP
T1 sequence (P08709 61-212 limits assumed): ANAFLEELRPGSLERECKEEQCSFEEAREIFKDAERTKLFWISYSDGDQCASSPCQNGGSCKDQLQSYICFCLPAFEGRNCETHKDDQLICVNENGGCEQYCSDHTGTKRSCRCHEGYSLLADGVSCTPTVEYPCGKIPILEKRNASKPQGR
T1 sequence (P13726 33-251 partner limits assumed): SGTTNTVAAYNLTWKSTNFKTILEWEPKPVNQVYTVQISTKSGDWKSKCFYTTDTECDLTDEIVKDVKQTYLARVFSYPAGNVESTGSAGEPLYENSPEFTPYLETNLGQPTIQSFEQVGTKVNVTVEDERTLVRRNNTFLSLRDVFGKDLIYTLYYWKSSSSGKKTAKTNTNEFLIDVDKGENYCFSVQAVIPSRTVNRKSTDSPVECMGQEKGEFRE
T2 sequence (P03952 391-638 limits assumed): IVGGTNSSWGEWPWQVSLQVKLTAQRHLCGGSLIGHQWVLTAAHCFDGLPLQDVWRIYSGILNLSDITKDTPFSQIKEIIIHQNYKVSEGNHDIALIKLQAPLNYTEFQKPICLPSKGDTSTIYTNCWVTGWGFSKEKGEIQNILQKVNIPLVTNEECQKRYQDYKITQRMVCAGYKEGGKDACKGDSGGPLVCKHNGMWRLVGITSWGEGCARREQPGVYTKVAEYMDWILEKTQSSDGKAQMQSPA
T2 sequence (P03952 20-390 limits assumed): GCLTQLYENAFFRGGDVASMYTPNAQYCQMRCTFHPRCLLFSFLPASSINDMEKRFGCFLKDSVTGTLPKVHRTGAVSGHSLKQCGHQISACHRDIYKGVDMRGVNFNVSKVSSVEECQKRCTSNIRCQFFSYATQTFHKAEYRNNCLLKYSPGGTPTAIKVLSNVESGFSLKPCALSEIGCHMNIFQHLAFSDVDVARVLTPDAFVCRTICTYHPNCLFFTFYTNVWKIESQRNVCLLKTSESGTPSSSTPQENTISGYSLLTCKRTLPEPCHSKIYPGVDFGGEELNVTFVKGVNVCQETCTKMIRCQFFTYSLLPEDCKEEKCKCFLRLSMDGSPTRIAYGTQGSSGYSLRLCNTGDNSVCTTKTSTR

Broadly, the Ki is the dissociation constant of the complex between target and ligand, obtained from inhibition or displacement. Take `CCOc1ccc(C(Nc2ccc(C(=N)N)cc2)C(=O)NS(=O)(=O)c2ccccc2)cc1OCC` (stereo not shown): the Ki stood at 5 nM in test [1] and 2 nM in test [2].

Take `CCOc1cc(C(Nc2ccc(C(=N)N)cc2)C(=O)NS(=O)(=O)CC)ccc1OC(C)C` (stereo not shown) [4-{2-ethylsulfonylamino-1-[4-isopropoxy,5-ethoxy)-phenyl]-2-oxo-ethylamino}benzamidine]: the inhibitory constant (Ki) in test [2] amounted to 11 nM; in test [3], 565 nM.

Take `COc1cc(C(CNS(=O)(=O)c2ccccc2)Nc2ccc(C(=N)N)cc2)ccc1OC(CCl)c1ccccc1` (stereo not shown) [4-{2-benzenesulfonylamino-1-[4-(2-chloro-1-phenyl-ethoxy)-3-methoxy-phenyl]-ethylamino}-benzamidine]: in test [4], the Ki was found to be 1 nM.

Regarding `CCOc1cc(C(Nc2ccc(C(=N)N)cc2)C(=O)NS(=O)(=O)c2ccccc2)ccc1OC(C)C` (stereo not shown) [4-{2-benzenesulfonylamino-1-[4-isopropoxy,5-ethoxy)-phenyl]-2-oxo-ethylamino}benzamidine], the results for the Ki in test [1], in test [4] and in test [3] were 3 nM, 113 nM and 898 nM, respectively.

`COc1cc(C(CNS(=O)(=O)c2cccs2)Nc2ccc(C(=N)N)cc2)ccc1OCc1ccccc1` (stereo not shown) [4-[1-(4-Benzyloxy-3-methoxy-phenyl)-2-(thiophene-2-sulfonylamino)-ethylamino]-benzamidine]: the Ki in test [4] was 16 nM.

With `CCCS(=O)(=O)NCC(Nc1ccc(C(=N)N)cc1)c1cc(OCC)c(OC(C)C)cc1NS(C)(=O)=O` (stereo not shown), the Ki in test [2] amounted to 1 nM.

For `CCCS(=O)(=O)NCC(Nc1ccc(C(=N)N)cc1)c1ccc(OC(CCl)c2ccccc2)c(OC)c1` (stereo not shown) [4-{2-propanesulfonylamino-1-[4-(2-chloro-1-phenyl-ethoxy)-3-methoxy-phenyl]-ethylamino}-benzamidine], the Ki in test [4] came to 1 nM; in test [3], 140 nM.

`CCCS(=O)(=O)NCC(Nc1ccc(C(=N)N)cc1)c1cc(OCC)c(OCC(C)C)cc1NS(=O)(=O)CCC` (stereo not shown) returned a Ki in test [2] of 1 nM.

Consider `CCOc1cc(OCC)cc(C(Nc2ccc(C(=N)N)cc2)C(=O)NS(=O)(=O)c2ccccc2)c1` (stereo not shown), for which, in test [1], the Ki worked out at 7 nM.

Consider `CCCCS(=O)(=O)NC(=O)C(Nc1ccc(C(=N)N)cc1)c1ccc(OC(C)C)c(OCC)c1` (stereo not shown) [4-{2-butylsulfonylamino-1-[4-isopropoxy,5-ethoxy)-phenyl]-2-oxo-ethylamino}benzamidine], for which, in test [3], affinity was put at a Ki of 624 nM.

As for `CCCS(=O)(=O)NCC(Nc1ccc(C(=N)N)cc1)c1cc(OCC)c(OCc2ccccc2)cc1NS(C)(=O)=O` (stereo not shown) [4-[1-(4-Benzyloxy-5-ethoxy-2-methanesulfonylamino-phenyl)-2-(propane-1-sulfonylamino)-ethylamino]benzamidine], the inhibition constant (Ki) in test [1] was 4 nM.

The record behind these values is patent publication US6472393B1, “Serine protease inhibitors” (Genentech, Inc., priority 1999, dated 2002).
